The results in this text go back to patent US7531482B2, “Thieno-pyrimidine compounds having fungicidal activity” (Dow AgroSciences LLC, priority 2005, dated 2009).

SMILES strings stand for the structures.

Type in all cases: in vivo
The test system of assay [1] is Mycosphaerella graminicola=Septoria tritici. As to the kind of experiment: Speckled Leaf Blotch of Wheat (SEPTTR) whole-plant disease control test. The note with it: Mycosphaerella, foliar, 75 ppm applied to foliage of wheat; read-out: SEPTTR disease control.
The test system of assay [2] is Puccinia recondita tritici. As to the kind of experiment: Leaf Rust of Wheat (PUCCRT) whole-plant disease control test. Conditions: Puccinia recondita, foliar, 200 ppm applied to foliage of wheat; inoculated one day after treatment; read-out: PUCCRT disease control.
Assay [3] concerns Colletotricum lagenarium. Description: Cucumber Anthracnose (COLLLA) whole-plant disease control test. The note with it: Cucumis sativus, foliar; 200 ppm applied to foliage of cucumber; inoculated one day after treatment; read-out: COLLLA disease control.
The test system of assay [4] is Magnaporthe grisea=Pyricularia oryzae. As to the kind of experiment: whole plant or invertebrate. Conditions: Pyricularia oryzae, foliar, read-out: PYRIOR disease control, 200 ppm applied to foliage of rice; inoculated one day after treatment.
The subject of assay [5] is Leptosphaeria nodorum. Description: Glume Blotch of Wheat (LEPTNO) whole-plant disease control test. The note with it: Parastagonospora nodorum, foliar; 200 ppm applied to foliage of wheat; inoculated one day after treatment; read-out: LEPTNO disease control.
The subject of assay [6] is Erysiphe cichoracaerum. As to the kind of experiment: Cucumber Powdery Mildew (ERYSCI) whole-plant disease control test. Conditions: Erysiphe, foliar; 200 ppm applied to foliage of cucumber; inoculated one day after treatment; read-out: ERYSCI disease control.
Assay [7] has as its system Phytophthora infestans. Description: whole plant or invertebrate. Conditions: Phytophthora infestans, in Solanum lycopersicum, foliar, read-out: PHYTIN disease control, 200 ppm applied to foliage of tomato; inoculated one day after treatment.

On to `O=[N+]([O-])c1ccc(Oc2ccc(CCNc3ncnc4scc(Cl)c34)cc2)nc1` [Compound 3], for which the pest or weed control at 75 ppm in assay [1] lay within 50 to 79%. The pest or weed control at 200 ppm lay within 80 to 100% in assay [2]; 50 to 79% in assay [3]; 80 to 100% in assay [4]; 50 to 79% in assay [5]; 50 to 79% in assay [6]; 80 to 100% in assay [7].
With `N#Cc1ccc(Oc2ccc(CCNc3ncnc4scc(Cl)c34)cc2)nc1` [Compound 4], the pest or weed control at 75 ppm in assay [1] lay within 50 to 79%. The pest or weed control at 200 ppm in assay [2], in assay [3], in assay [4], in assay [5], in assay [6] and in assay [7] was 80 to 100% throughout.
For the compound `CC(C)(C)OC(=O)c1ccc(Oc2ccc(CCNc3ncnc4scc(Cl)c34)cc2)cc1` [Compound 6], the pest or weed control at 75 ppm in assay [1] fell in the range of 50 to 79%. Moreover, the pest or weed control at 200 ppm in assay [2] was 80 to 100%; in assay [3] it was 50 to 79%; in assay [4] it was 80 to 100%; in assay [5] it was 0 to 49%; in assay [6] it was 80 to 100%; in assay [7], 50 to 79%.
On to `Clc1csc2ncnc(NCCc3ccc(Oc4ccc(Br)cn4)cc3)c12` [Compound 7, {2-[4-(5-Bromopyridin-2-yloxy)phenyl]ethyl}-(5-chlorothieno[2,3-d]pyrimidin-4-yl}amine], for which the pest or weed control at 75 ppm in assay [1] is 50 to 79%. The pest or weed control at 200 ppm in assay [2] was 80 to 100%; in assay [3], 50 to 79%; in assay [4], 50 to 79%; in assay [5] it was 80 to 100%; in assay [6], 80 to 100%; in assay [7], 0 to 49%.
As for `FC(F)(F)c1ccnc(Oc2ccc(CCNc3ncnc4scc(Cl)c34)cc2)c1` [Compound 12], the pest or weed control at 75 ppm in assay [1] lay within 50 to 79%. Also, the pest or weed control at 200 ppm in assay [2] was 80 to 100%; in assay [3], 50 to 79%; in assay [4], 80 to 100%; in assay [5], 80 to 100%; in assay [6] it was 80 to 100%; in assay [7], 50 to 79%.
Take `N#Cc1ccnc(Oc2ccc(CCNc3ncnc4scc(Cl)c34)cc2)c1` [Compound 13]: the pest or weed control at 75 ppm in assay [1] was in the range of 50 to 79%. Moreover, the pest or weed control at 200 ppm in assay [2] lay within 80 to 100%; in assay [3], 50 to 79%; in assay [4], 80 to 100%; in assay [5] it was 80 to 100%; in assay [6], 80 to 100%; in assay [7], 50 to 79%.
For the compound `O=C(Oc1ccc(CCNc2ncnc3scc(Cl)c23)cc1)c1ccccn1` [Compound 14], the pest or weed control at 75 ppm in assay [1] lay within 0 to 49%. Further, the pest or weed control at 200 ppm in assay [2] lay within 80 to 100%; in assay [3], 0 to 49%; in assay [4] it was 80 to 100%; in assay [5] it was 50 to 79%; in assay [6] it was 0 to 49%; in assay [7], 0 to 49%.
For the compound `O=C(Oc1ccc(CCNc2ncnc3scc(Cl)c23)cc1)c1ccc(Cl)nc1` [Compound 15], the pest or weed control at 75 ppm in assay [1] was in the range of 0 to 49%. The pest or weed control at 200 ppm in assay [2] lay in the range of 80 to 100%; in assay [3], 0 to 49%; in assay [4] it was 80 to 100%; in assay [5], 50 to 79%; in assay [6] it was 0 to 49%; in assay [7], 0 to 49%.
As to `Clc1csc2ncnc(NCCc3ccc(Oc4ncc(Br)s4)cc3)c12` [Compound 16], the pest or weed control at 75 ppm in assay [1] lay within 80 to 100%. Further, the pest or weed control at 200 ppm is 80 to 100% in assay [2]; 0 to 49% in assay [3]; 80 to 100% in assay [4]; 0 to 49% in assay [5]; 50 to 79% in assay [6]; 80 to 100% in assay [7].
On to `Clc1csc2ncnc(NCCc3ccc(Oc4ncccn4)cc3)c12` [Compound 17], for which, in assay [1], the pest or weed control at 75 ppm is 50 to 79%. For the same compound, the pest or weed control at 200 ppm in assay [2] lay in the range of 80 to 100%; in assay [3], 0 to 49%; in assay [4], 80 to 100%; in assay [5] it was 50 to 79%; in assay [6] it was 50 to 79%; in assay [7], 80 to 100%.
`Clc1csc2ncnc(NCCc3ccc(Oc4ccccn4)cc3)c12` [Compound 18]: the pest or weed control at 75 ppm in assay [1] was in the range of 50 to 79%. For the same compound, the pest or weed control at 200 ppm is 80 to 100% in assay [2]; 0 to 49% in assay [3]; 80 to 100% in assay [4]; 0 to 49% in assay [5]; 80 to 100% in assay [6]; 80 to 100% in assay [7].
In the case of `[O-][n+]1ccccc1Oc1ccc(CCNc2ncnc3scc(Cl)c23)cc1` [Compound 19], the pest or weed control at 75 ppm in assay [1] is 50 to 79%. In addition, the pest or weed control at 200 ppm in assay [2] was 80 to 100%; in assay [3], 0 to 49%; in assay [4], 80 to 100%; in assay [5] it was 0 to 49%; in assay [6], 50 to 79%; in assay [7] it was 80 to 100%.
`NC(=O)c1ccc(Oc2ccc(CCNc3ncnc4scc(Cl)c34)cc2)nc1` [Compound 21]: in assay [1], the pest or weed control at 75 ppm lay within 0 to 49%. Besides, the pest or weed control at 200 ppm in assay [2] was 80 to 100%; in assay [3] it was 0 to 49%; in assay [4], 0 to 49%; in assay [5] it was 0 to 49%; in assay [6], 0 to 49%; in assay [7], 0 to 49%.
In the case of `N#Cc1cc[n+]([O-])c(Oc2ccc(CCNc3ncnc4scc(Cl)c34)cc2)c1` [Compound 22], in assay [1], the pest or weed control at 75 ppm was 0 to 49%. Besides, the pest or weed control at 200 ppm was 80 to 100% in assay [2]; 50 to 79% in assay [3]; 80 to 100% in assay [4]; 50 to 79% in assay [5]; 50 to 79% in assay [6]; 50 to 79% in assay [7].
Take `CCOC(=O)c1ccc(Oc2ccc(CCNc3ncnc4scc(Cl)c34)cc2)nc1` [Compound 23]: the pest or weed control at 75 ppm in assay [1] was in the range of 0 to 49%. For the same compound, the pest or weed control at 200 ppm in assay [2] was in the range of 80 to 100%; in assay [3] it was 0 to 49%; in assay [4] it was 50 to 79%; in assay [5], 0 to 49%; in assay [6], 0 to 49%; in assay [7], 50 to 79%.
Take `O=Cc1ccc(Oc2ccc(CCNc3ncnc4scc(Cl)c34)cc2)nc1` [Compound 24]: in assay [1], the pest or weed control at 75 ppm was in the range of 50 to 79%. For the same compound, the pest or weed control at 200 ppm in assay [2] is 80 to 100%; in assay [3], 50 to 79%; in assay [4], 80 to 100%; in assay [5], 0 to 49%; in assay [6], 0 to 49%; in assay [7], 50 to 79%.
In the case of `COc1nc(OC)nc(Oc2ccc(CCNc3ncnc4scc(Cl)c34)cc2)n1` [Compound 26], the pest or weed control at 75 ppm in assay [1] fell in the range of 0 to 49%. Moreover, the pest or weed control at 200 ppm lay in the range of 80 to 100% in assay [2]; 0 to 49% in assay [3]; 50 to 79% in assay [4]; 0 to 49% in assay [5]; 0 to 49% in assay [6]; 0 to 49% in assay [7].
`FC(F)(F)c1ccnc(Oc2ccc(CCNc3ncnc4scc(Cl)c34)cc2)n1` [Compound 27]: the pest or weed control at 75 ppm in assay [1] was 50 to 79%. The pest or weed control at 200 ppm in assay [2] lay within 80 to 100%; in assay [3], 50 to 79%; in assay [4] it was 80 to 100%; in assay [5], 0 to 49%; in assay [6], 80 to 100%; in assay [7], 50 to 79%.
`N#Cc1cccnc1Oc1ccc(CCNc2ncnc3scc(Cl)c23)cc1` [Compound 28]: the pest or weed control at 75 ppm in assay [1] lay in the range of 50 to 79%. The pest or weed control at 200 ppm in assay [2] was in the range of 80 to 100%; in assay [3] it was 50 to 79%; in assay [4], 50 to 79%; in assay [5] it was 50 to 79%; in assay [6] it was 0 to 49%; in assay [7], 0 to 49%.
Consider `N#Cc1ncc(F)cc1Oc1ccc(CCNc2ncnc3scc(Cl)c23)cc1` [Compound 29], for which the pest or weed control at 75 ppm in assay [1] lay within 50 to 79%. For the same compound, the pest or weed control at 200 ppm in assay [2] lay in the range of 80 to 100%; in assay [3], 50 to 79%; in assay [4], 50 to 79%; in assay [5] it was 0 to 49%; in assay [6], 0 to 49%; in assay [7], 0 to 49%.
On to `N#Cc1ncc(Oc2ccc(CCNc3ncnc4scc(Cl)c34)cc2)cc1F` [Compound 30], for which the pest or weed control at 75 ppm in assay [1] lay within 50 to 79%. The pest or weed control at 200 ppm fell in the range of 80 to 100% in assay [2]; 80 to 100% in assay [3]; 80 to 100% in assay [4]; 0 to 49% in assay [5]; 50 to 79% in assay [6]; 50 to 79% in assay [7].
